Source: patent US12655116B2, “Substituted isophthalic acid diamides” (Bayer Aktiengesellschaft, priority 2020, dated 2026)

Experiments:
[1] = tested on: AMARE; experiment: Pre-emergence herbicidal action against AMARE; assay type: in vivo, Amaranthus retroflexus
In short: (§1)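 Pre-emergence soil-surface spray of formulated compound (WP or EC; 600 to 800 l/ha; 0.2% wetting agent) over seeds sown in sandy loam. After 3 weeks under greenhouse conditions, damage is estimated visually in percent against untreated plants.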

[2] = tested on: VERPE; experiment: Pre-emergence herbicidal action against VERPE; assay type: in vivo, Veronica persica; settings: dosage 80 g/ha
In short: as §1

[3] = tested on: PHBPU; experiment: Pre-emergence herbicidal action against PHBPU; assay type: in vivo, Pharbitis purpurea
In short: as §1

[4] = tested on: VIOTR; experiment: Pre-emergence herbicidal action against VIOTR; assay type: in vivo, Viola tricolor
In short: as §1

[5] = tested on: POLCO; experiment: Pre-emergence herbicidal action against POLCO; assay type: in vivo, Polygonum convolvulus; settings: dosage 80 g/ha
In short: as §1

[6] = tested on: ECHCG; experiment: Post-emergence herbicidal action against ECHCG; assay type: in vivo, Echinochloa crus-galli
In short: (§2)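 Greenhouse plants in sandy loam were sprayed at the one-leaf stage, 2 to 3 weeks after sowing, with WP or EC formulations as aqueous suspension or emulsion (600 to 800 l/ha water, 0.2% wetting agent). Visual damage was scored about 3 weeks later versus untreated controls, 0% = like control, 100% = dead.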

[7] = tested on: MATIN; experiment: Pre-emergence herbicidal action against MATIN; assay type: in vivo, Matricaria inodora
In short: as §1

[8] = tested on: LOLRI; experiment: Pre-emergence herbicidal action against LOLRI; assay type: in vivo, Lolium rigidum; settings: 80 g/ha
In short: as §1

[9] = tested on: DIGSA; experiment: Pre-emergence herbicidal action against DIGSA; assay type: in vivo, Digitaria sanguinalis
In short: as §1

[10] = tested on: SETVI; experiment: Pre-emergence herbicidal action against SETVI; assay type: in vivo, Setaria viridis; settings: dosage 80 g/ha
In short: as §1

[11] = tested on: SETVI; experiment: Post-emergence herbicidal action against SETVI; assay type: in vivo, Setaria viridis; settings: dosage 20 g/ha
In short: as §2

[12] = tested on: ABUTH; experiment: Pre-emergence herbicidal action against ABUTH; assay type: in vivo, Abutilon theophrasti
In short: as §1

[13] = tested on: PHBPU; experiment: Post-emergence herbicidal action against PHBPU; assay type: in vivo, Pharbitis purpurea
In short: as §2

[14] = tested on: ALOMY; experiment: Pre-emergence herbicidal action against ALOMY; assay type: in vivo, Alopecurus myosuroides; settings: pre-emergence
In short: as §1

[15] = tested on: AMARE; experiment: Post-emergence herbicidal action against AMARE; assay type: in vivo, Amaranthus retroflexus; settings: 20 g/ha, visual assessment about 3 weeks after treatment, 100% = plants have died, 0% = like control plants
In short: as §2

[16] = tested on: ALOMY; experiment: Post-emergence herbicidal action against ALOMY; assay type: in vivo, Alopecurus myosuroides; settings: visual assessment about 3 weeks after treatment vs untreated controls
In short: as §2

[17] = tested on: ECHCG; experiment: Pre-emergence herbicidal action against ECHCG; assay type: in vivo, Echinochloa crus-galli
In short: as §1

[18] = tested on: AVEFA; experiment: Pre-emergence herbicidal action against AVEFA; assay type: in vivo, Avena fatua; settings: Avena fatua, 504 h, pre-emergence
In short: as §1

[19] = tested on: VERPE; experiment: Post-emergence herbicidal action against VERPE; assay type: in vivo, Veronica persica; settings: Veronica persica, 504 h, 20 g/ha
In short: as §2

[20] = tested on: ABUTH; experiment: Post-emergence herbicidal action against ABUTH; assay type: in vivo, Abutilon theophrasti; settings: Abutilon theophrasti, 504 h, visual assessment about 3 weeks after treatment vs untreated controls
In short: as §2

[21] = tested on: VIOTR; experiment: Post-emergence herbicidal action against VIOTR; assay type: in vivo, Viola tricolor; settings: Viola tricolor, 504 h
In short: as §2

[22] = tested on: MATIN; experiment: Post-emergence herbicidal action against MATIN; assay type: in vivo, Matricaria inodora; settings: Tripleurospermum inodorum, 504 h, dosage 20 g/ha
In short: as §2

[23] = 80 g/ha, scored visually after 3 weeks vs untreated controls (100% = plants have died, 0% = like control plants)

COCCNC(=O)c1c(C(F)(F)F)ccc(C(=O)Nc2nnnn2C)c1Cl [Example 1-138]
80%: Pre-emergence action against PHBPU in % ([3]; dosage 20 g/ha) | Post-emergence action against ECHCG in % ([6]; dosage 5 g/ha) | Post-emergence action against SETVI in % [11] | Post-emergence action against PHBPU in % ([13]; dosage 5 g/ha)
100%: Pre-emergence action against AMARE in % ([1]; 20 g/ha, scored visually after 3 weeks vs untreated controls, 100% = plants have died, 0% = like control plants) | Pre-emergence action against AMARE in % [1, 23] | Pre-emergence action against VIOTR in % ([4]; dosage 20 g/ha) | Pre-emergence action against VIOTR in % ([4]; dosage 80 g/ha) | Pre-emergence action against MATIN in % ([7]; dosage 80 g/ha) | Pre-emergence action against DIGSA in % ([9]; dosage 20 g/ha) | Pre-emergence action against DIGSA in % ([9]; dosage 80 g/ha) | Pre-emergence action against SETVI in % [10] | Pre-emergence action against ABUTH (herbicidal activity) [12, 23] | Pre-emergence action against ABUTH (herbicidal activity in percent) ([12]; dosage 20 g/ha, scored visually after 3 weeks vs untreated controls, 100% = plants have died, 0% = like control plants) | Pre-emergence action against ECHCG in % ([17]; 80 g/ha)
90%: Pre-emergence action against VERPE in % [2] | Pre-emergence action against PHBPU in % ([3]; dosage 80 g/ha) | Pre-emergence action against POLCO in % [5] | Post-emergence action against ECHCG in % ([6]; dosage 20 g/ha) | Pre-emergence action against MATIN in % ([7]; dosage 20 g/ha) | Pre-emergence action against LOLRI in % [8] | Post-emergence action against PHBPU in % ([13]; dosage 20 g/ha) | Pre-emergence action against ALOMY (herbicidal activity) [14, 23] | Post-emergence action at 20 g/ha against AMARE in % [15] | Post-emergence action against ALOMY in % ([16]; dosage 20 g/ha)

CCCNC(=O)c1c(C(F)F)ccc(C(=O)Nc2nnnn2C)c1C [Example 1-345]
80%: pest or weed control at 20 g/ha ([18]; 20 g/ha, scored visually after 3 weeks, 100% = plants have died, 0% = like control plants) | pest or weed control at 80 g/ha ([2]; Veronica persica, 504 h) | pest or weed control at 5 g/ha ([20]; dosage 5 g/ha) | pest or weed control at 80 g/ha ([8]; Lolium rigidum, 504 h) | pest or weed control at 5 g/ha ([13]; Ipomoea purpurea, 504 h, dosage 5 g/ha) | pest or weed control at 20 g/ha ([13]; Ipomoea purpurea, 504 h, dosage 20 g/ha) | pest or weed control at 20 g/ha ([14]; Alopecurus myosuroides, 504 h, 20 g/ha, scored visually after 3 weeks, 100% = plants have died, 0% = like control plants) | pest or weed control at 20 g/ha [22] | pest or weed control at 5 g/ha ([16]; Alopecurus myosuroides, 504 h, dosage 5 g/ha)
90%: pest or weed control at 80 g/ha ([18]; 80 g/ha) | pest or weed control at 20 g/ha [19] | pest or weed control at 80 g/ha ([5]; Fallopia convolvulus, 504 h) | pest or weed control at 20 g/ha ([20]; dosage 20 g/ha) | pest or weed control at 20 g/ha ([6]; Echinochloa crus-galli, 504 h, dosage 20 g/ha) | pest or weed control at 5 g/ha ([21]; 5 g/ha) | pest or weed control at 20 g/ha ([11]; Setaria viridis, 504 h) | pest or weed control at 80 g/ha ([14]; Alopecurus myosuroides, 504 h, 80 g/ha, scored visually after 3 weeks vs untreated controls (100% = plants have died, 0% = like control plants)) | pest or weed control at 20 g/ha ([16]; Alopecurus myosuroides, 504 h, dosage 20 g/ha) | pest or weed control at 20 g/ha ([17]; Echinochloa crus-galli, 504 h, 20 g/ha)
100%: pest or weed control at 20 g/ha ([1]; Amaranthus retroflexus, 504 h, 20 g/ha, scored visually after 3 weeks vs untreated controls, 100% = plants have died, 0% = like control plants) | pest or weed control at 80 g/ha ([1]; Amaranthus retroflexus, 504 h, 80 g/ha, scored visually after 3 weeks vs untreated controls, 100% = plants have died, 0% = like control plants) | pest or weed control at 80 g/ha ([4]; Viola tricolor, 504 h, dosage 80 g/ha) | pest or weed control at 20 g/ha ([21]; 20 g/ha) | pest or weed control at 20 g/ha ([7]; Tripleurospermum inodorum, 504 h, dosage 20 g/ha) | pest or weed control at 80 g/ha ([7]; Tripleurospermum inodorum, 504 h, dosage 80 g/ha) | pest or weed control at 80 g/ha ([10]; Setaria viridis, 504 h) | pest or weed control at 80 g/ha ([12]; Abutilon theophrasti, 504 h, 80 g/ha, scored visually after 3 weeks vs untreated controls (100% = plants have died, 0% = like control plants)) | pest or weed control at 20 g/ha ([12]; Abutilon theophrasti, 504 h, dosage 20 g/ha, scored visually after 3 weeks vs untreated controls, 100% = plants have died, 0% = like control plants, read-out: Pre-emergence action against ABUTH (herbicidal activity in percent)) | pest or weed control at 20 g/ha ([15]; Amaranthus retroflexus, 504 h) | pest or weed control at 80 g/ha ([17]; Echinochloa crus-galli, 504 h, 80 g/ha)
